# From patent US12428442B2, “Compounds, compositions and methods for synthesis” (WAVE LIFE SCIENCES LTD., priority 2017, dated 2025)
# Test: Measuring pKa value of amino alcohols by titration against NaOH in MDA/KCl
# Conditions: MDA = Methanol-Dioxane-Acetonitrile, 1:1:1
# Protocol: To this clear solution was added 6 μL of con. HCl and stirred well. This solution was titrated against 1 M NaOH solution. NaOH solution was added in 2 (or 4) ml increments. During the addition of each increment of NaOH solution, pH of the solution was recorded using a pH meter until a pH of 12 was measured. The measured titration values were analyzed (graph pad software was used) to determine the first derivative of the volume of NaOH used in the titration. This first derivative value is the pKa of the amino alcohol.
row,SMILES,solubility of sample in MDA mixture
1,C[Si](C[C@H](O)[C@H]1CCCN1)(C1CCCCC1)C1CCCCC1 [WV-CA-041-D],Sample Insoluble in MDA
2,C[Si](C[C@@H](O)[C@@H]1CCCN1)(C1CCCCC1)C1CCCCC1 [WV-CA-041-L],Sample Insoluble in MDA
3,C[Si](C[C@@H](O)[C@@H]1CCCCN1)(C1CCCCC1)C1CCCCC1 [WV-CA-045],Insoluble in MDA mixture
4,C[Si](C[C@H](O)[C@@H]1CCCCN1)(C1CCCCC1)C1CCCCC1 [WV-CA-046],Insoluble in MDA mixture
